# Patent publication US20230203043A1, “NOVEL IMIDAZOPYRAZINE DERIVATIVES” (Hoffmann-La Roche Inc., priority 2020, published 2023)
# Structures can show the parent of a compound that is named as a salt.
# Tested on: Acinetobacter baumannii ATCC17961
# Experiment: Antimicrobial susceptibility testing: 90% growth inhibitory concentration (IC90) determination in Iso-Sensitest broth, OD600 growth
# Format: cell-based
# Details: Acinetobacter baumannii, ATCC17961, 16 h, read-out: A. baumannii ATCC 17961 IC90 (uM), strain ATCC 17961, OD600 growth over 16 h
# How it was run: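 OD600 read every 20 min for 16 h at 35±2° C; inhibition taken in log phase to derive IC90. Twofold, 10-point dilutions (e.g. 50–0.097 μM final), inoculum ~5×10^(5) CFU/ml.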
row,SMILES,IC90 [µM]
1,"CCc1cc(Nc2nccn3c(-c4cn(C(C)C#N)nc4C(F)(F)F)cnc23)ccc1C(=O)NCCOCCN1CCCC1 (stereo not drawn) [Example 645, 4-((3-(1-(1-cyanoethyl)-3-(trifluoromethyl)-1H-pyrazol-4-yl)imidazo[1,2-a]pyrazin-8-yl)amino)-2-ethyl-N-(2-(2-(pyrrolidin-1-yl)ethoxy)ethyl)benzamide formate]",0.242
2,"C[C@@H](NC(=O)c1ccc(Nc2nccn3c(-c4cn(CC#N)nc4C(F)(F)F)cnc23)cc1Cl)C(=O)N1CCNCC1 [Example 647, 2-chloro-4-[[3-[1-(cyanomethyl)-3-(trifluoromethyl)pyrazol-4-yl]imidazo[1,2-a]pyrazin-8-yl]amino]-N-[(1R)-1-methyl-2-oxo-2-piperazin-1-yl-ethyl]benzamide formate]",0.244
3,"CCc1cc(Nc2nccn3c(-c4c[nH]nc4C(F)(F)F)cnc23)ccc1C(=O)NCCCNC(=O)[C@H](C)N [Example 652, (S)-N-(3-(2-aminopropanamido)propyl)-2-ethyl-4-((3-(3-(trifluoromethyl)-1H-pyrazol-4-yl)imidazo [1,2-a]pyrazin-8-yl)amino)benzamide formate]",0.259

# Same assay, conditions: Acinetobacter baumannii, ATCC17961, 16 h, strain ATCC 17961, OD600 growth over 16 h, read-out: A. baumannii ATCC 17961 IC90
row,IC90 [µM],SMILES
1,0.24,"CCc1cc(Nc2nccn3c(-c4cn(CC(O)C(F)(F)F)nc4C(F)(F)F)cnc23)ccc1C(=O)NCCOCCN (stereo not drawn) [Example 644, N-(2-(2-aminoethoxy)ethyl)-2-ethyl-4-((3-(1-(3,3,3-trifluoro-2-hydroxypropyl)-3-(trifluoromethyl)-1H-pyrazol-4-yl)imidazo [1,2-a]pyrazin-8-yl)amino) benzamide]"
2,0.243,"C#CCn1cc(-c2cnc3c(Nc4cc(C)c(C(=O)N5CCN(C(=O)[C@H]6CC[C@H](O)N6)CC5)c(F)c4)nccn23)c(C(F)(F)F)n1 [Example 646, (4-(2-fluoro-6-methyl-4-((3-(1-(prop-2-yn-1-yl)-3-(trifluoromethyl)-1H-pyrazol-4-yl)imidazo[1,2-a]pyrazin-8-yl)amino)benzoyl)piperazin-1-yl)((2R,5S)-5-hydroxypyrrolidin-2-yl)methanone]"
3,0.246,"CCc1cc(Nc2nccn3c(-c4cn(CC(F)F)nc4C(F)(F)F)cnc23)ccc1C(=O)NCC(=O)N[C@@H]1CCNC1 [Example 648, 4-[[3-[1-(2,2-difluoroethyl)-3-(trifluoromethyl)pyrazol-4-yl]imidazo[1,2-a]pyrazin-8-yl]amino]-2-ethyl-N-[2-oxo-2-[[(3R)-pyrrolidin-3-yl]amino]ethyl] benzamide formate]"
4,0.247,"CCc1cc(Nc2nccn3c(-c4cn(CC(F)F)nc4C(F)(F)F)cnc23)ccc1C(=O)N[C@H](C)CNC(=O)[C@@H]1CCCN1 [Example 649, (S)-N-((R)-2-(4-((3-(1-(2,2-difluoroethyl)-3-(trifluoromethyl)-1H-pyrazol-4-yl)imidazo[1,2-a]pyrazin-8-yl)amino)-2-ethylbenzamido)propyl)pyrrolidine-2-carboxamide]"
5,0.252,"Cc1cc(Nc2nccn3c(-c4cn(CC(F)F)nc4C(F)(F)F)cnc23)cc(F)c1C(=O)N1CCN(C(=O)CN)CC1 [Example 650, 2-amino-1-(4-(4-((3-(1-(2,2-difluoroethyl)-3-(trifluoromethyl)-1H-pyrazol-4-yl)imidazo[1,2-a]pyrazin-8-yl)amino)-2-fluoro-6-methylbenzoyl)piperazin-1-yl)ethan-1-one]"
6,0.254,"NCC(=O)N1CC2(C1)CN(C(=O)c1ccc(Nc3nccn4c(-c5cn(CC(F)F)nc5C(F)(F)F)cnc34)cc1Cl)C2 [Example 651, 2-amino-1-(6-(2-chloro-4-((3-(1-(2,2-difluoroethyl)-3-(trifluoromethyl)-1H-pyrazol-4-yl)imidazo[1,2-a]pyrazin-8-yl)amino)benzoyl)-2,6-diazaspiro[3.3]heptan-2-yl)ethan-1-one]"
